Laboratory results as given in PubChem BioAssay (NCI).
“And” between values parts separate entries of the source, which are not always exact repeats. Equal values may be shown once.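 96-well plates; 48 h exposure; 5 concentrations. Endpoints by linear interpolation between flanking doses. Not reached: highest tested concentration assigned. Definition used: TGI = concentration required for complete inhibition of growth.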

Columns and labels:
Experiment in all cases: NCI-60 cell line screen, 48 h
[1] = test system: ACHN renal
[2] = test system: SF-268 CNS
[3] = test system: NCI/ADR-RES ovarian
[4] = test system: DU-145 prostate
[5] = test system: SN12C renal
[6] = test system: SK-MEL-2 melanoma
[7] = test system: M14 melanoma
[8] = test system: SNB-19 CNS
[9] = test system: CAKI-1 renal
[10] = test system: HOP-62 NSCLC

SMILES | TGI [1] | TGI [2] | TGI [3] | TGI [4] | TGI [5] | TGI [6] | TGI [7] | TGI [8] | TGI [9] | TGI [10]
CN(CCn1cnc2c1c(=O)n(C)c(=O)n2C)C1CCCCC1 | > 100 µM | > 100 µM | > 100 µM | > 100 µM | > 100 µM | > 100 µM | > 100 µM | > 100 µM | > 100 µM | > 100 µM
CCCCCCCCOC1C(O)C(O)C(O)C(O)C12CO2 (stereo not given) | > 100 µM | > 100 µM | > 100 µM | > 100 µM | > 100 µM | > 100 µM | – | > 100 µM | > 100 µM | > 100 µM
CC(=O)OC(/C=C/c1ccccc1)P1(=O)N(CC(C)(C)C)[C@@H]2CCCC[C@H]2N1CC(C)(C)C (stereo not given in full) | 21.6 µM and 20.3 µM | 23.3 µM and 22.7 µM | 20.6 µM and 18.3 µM | 23.7 µM and 23.5 µM | 22.6 µM and 21.6 µM | 24.3 µM and 18.5 µM | 17.5 µM and 18.9 µM | 23.5 µM and 24.2 µM | 31.3 µM and 23.6 µM | 38.3 µM and 30.3 µM
CCOC(=O)C1=CNC(C(=O)OCC)C1c1cccn1-c1ccc(Cl)cc1[N+](=O)[O-] (stereo not given) | > 100 µM | 55.5 µM | 62.5 µM | > 100 µM | 37.8 µM | 34.8 µM | 44.9 µM | – | 58.6 µM | 53.6 µM
NC(N)=N/N=C/c1nc2n(c1[N+](=O)[O-])CCS2 | > 100 µM | > 100 µM | > 100 µM | 88.2 µM | > 100 µM | 44.7 µM | > 100 µM | > 100 µM | > 100 µM | > 100 µM
O=C(/C=C/c1ccc(O)cc1)c1ccc2c(c1)OCO2 | 52.8 µM | 58.5 µM | 67.9 µM | 76.7 µM | 30.7 µM | 62.4 µM | 51.9 µM | 36.3 µM | 35.3 µM | 38.5 µM
O=C(O)c1cc2ccccc2c(N=Nc2ccc(S(=O)(=O)Nc3nccs3)cc2)c1O | > 100 µM | > 100 µM | > 100 µM | > 100 µM | > 100 µM | > 100 µM | > 100 µM | – | > 100 µM | > 100 µM
S=C(NC1=NCC(CN2CCN(c3ccccc3)CC2)O1)Nc1ccccc1 (stereo not given) | > 100 µM | > 100 µM | > 100 µM | > 100 µM | > 100 µM | > 100 µM | > 100 µM | > 100 µM | > 100 µM | > 100 µM
O=C(NCCC1([N+](=O)[O-])CCN(C(=O)c2ccccc2)CC1)c1ccccc1 | > 100 µM | > 100 µM | > 100 µM | > 100 µM | > 100 µM | > 100 µM | > 100 µM | > 100 µM | > 100 µM | –
C1CCC2(CC1)O[C@@H]1[C@@H](O2)[C@@H](O[C@H]2O[C@@H]3COC4(CCCCC4)O[C@H]3[C@@H]3OC4(CCCCC4)O[C@@H]23)O[C@@H]2COC3(CCCCC3)O[C@@H]12 | > 100 µM | > 100 µM | > 100 µM | > 100 µM | > 100 µM | > 100 µM | > 100 µM | > 100 µM | > 100 µM | > 100 µM
O=C1CCC2(CC1CC(Sc1ccccc1)Sc1ccccc1)OCCO2 (stereo not given) | > 100 µM | > 100 µM | > 100 µM | > 100 µM | – | > 100 µM | > 100 µM | > 100 µM | > 100 µM | > 100 µM
